In PMC5905968, “Evaluation of the fusion inhibitor P3 peptide as a potential microbicide to prevent HIV transmission in women” (PLoS ONE, 2018):

Assay: LC-MS/MS determination of P3 after exposure to seminal plasma or vaginal fluid simulant
Assay type: in vitro ADME, human
Details: triplicates; for P3 level: 37°C, LC-MS/MS, below limit of quantification (2.5 ppm)
Procedure: Individual standard solutions (0.25–250 ppm) of P3 were prepared in acetonitrile (99.9% LC–MS) (J.T.Baker, Deventer, the Netherlands) in the presence of SP (0.5 or 1.0%), VFS or growth medium (GM) and analyzed after 24h, 48h and 1 week. In order to precipitate the proteins in the biological fluids, 1 ml of acetonitrile (1:1) was added to 1 ml of sample and samples were centrifuged at 13,000 rpm for 10 min and filtered ([…] PVDF membrane; Chromafil®Xtra from Macherey-Nagel®) just before analysis, All samples were analyzed as triplicates.
The LC system was a Waters® Alliance 2695 (Waters®) equipped with a quaternary pump, solvent degasser, auto sampler and column oven, coupled to a Photodiode Array Detector Waters 996 PDA (Waters®) scanning from 210 to 600 nm. The separation was performed on a reversed phase column LiChrospher® 100 RP-18 (10 x 4.0mm; Merck®, Germany) operating at 35 °C, using an injection volume of 10 μl. The mobile phase consisted of water [Ultra-pure water (18.2MΩ.cm) from a Millipore-Direct Q3 UV system (Millipore, USA)] with TFA 0.1% (v/v) (98% p.a.; Merck®, Germany) (A) and acetonitrile with TFA 0.1% (v/v) (B) at a flow rate of 0.30 ml/min. The following gradient was used: 70% of A as initial conditions, 70% A to 30% A for 7 min. A cleaning step was performed using 100% of acetonitrile for 1 min and finally the column was re-equilibrated with 70% of eluent A for 5 min.
A triple quadrupole mass spectrometer MicroMass® Quattro micro (Micromass®, Waters®) with an electrospray ionization source (ESI) was coupled to the LC system, described above. The ion source conditions were optimized using a standard solution directly injected in the ion source: temperature 120°C, capillary voltage 3.0 kV and cone voltage 50 V. The compound was ionized in positive ion mode and the spectra, in Full Scan, were recorded in the range m/z 100–1700. All analyses were performed in multiple reactions monitoring (MRM) mode in order to achieve a high selectivity and sensitivity. […]

SMILES: CC[C@H](C)[C@H](NC(=O)[C@H](CC(N)=O)NC(=O)[C@H](C)NC(=O)[C@H](CCC(=O)O)NC(=O)[C@H](CC(C)C)NC(=O)[C@H](Cc1ccc(O)cc1)NC(=O)[C@H](CCCNC(=N)N)NC(=O)[C@@H](NC(=O)[C@H](CCC(N)=O)NC(=O)[C@H](CCC(N)=O)NC(=O)[C@H](CCC(=O)O)NC(=O)[C@H](Cc1c[nH]c2ccccc12)NC(=O)[C@H](CCC(=O)O)NC(=O)[C@H](CCC(N)=O)NC(=O)[C@H](Cc1c[nH]c2ccccc12)NC(C)=O)C(C)C)C(=O)N[C@@H](CO)C(=O)N[C@@H](CCC(N)=O)C(=O)N[C@@H](CCCNC(=N)N)C(=O)N[C@@H](CC(C)C)C(=O)N[C@@H](CCC(=O)O)C(=O)N[C@@H](CCC(N)=O)C(=O)N[C@@H](C)C(=O)N[C@@H](CCC(N)=O)C(=O)N[C@H](C(=O)N[C@@H](CCC(N)=O)C(=O)N[C@@H](CCC(N)=O)C(=O)N[C@@H](CCC(=O)O)C(=O)N[C@@H](CCCCN)C(=O)N[C@@H](CC(N)=O)C(=O)N[C@@H](CCSC)C(=O)N[C@@H](Cc1ccc(O)cc1)C(=O)N[C@@H](CCC(=O)O)C(=O)N[C@@H](CC(C)C)C(=O)N[C@@H](CCC(N)=O)C(N)=O)[C@@H](C)CC [P3]
- P3 level (after 48h in 1% human seminal plasma): < 2.5 µg/mL
- P3 level (after one week in 0.5% human seminal plasma): < 2.5 µg/mL
- detection of P3 in the presence of VFS (vaginal fluid simulant pH 4.2, LC-MS/MS (MRM)): readily detectable
